# From patent US20220370485A1, “COMPOUNDS AND METHODS FOR TREATING OR PREVENTING CARDIOVASCULAR DISEASES AND CONDITIONS” (Lexicon Pharmaceuticals, Inc., priority 2021, published 2022)
# Like-named read-outs stand apart in the source and are kept apart here.
# What was measured:
# [1] = system: patients with type 2 diabetes mellitus, chronic kidney disease, and additional cardiovascular risk; conditions: T2DM + CKD patients
# [2] = system: patients with type 2 diabetes mellitus recently hospitalized for worsening heart failure; conditions: for Difference (95% CI) in least-squares mean change in KCCQ-12 score to month 4 / Difference (95% CI) in least-squares mean change in estimated GFR: sotagliflozin minus placebo
# [3] = sotagliflozin vs placebo, listed as sotagliflozin
# [4] = sotagliflozin vs placebo, time-to-event analysis
# [5] = T2DM + worsening heart failure, N = 608
# [6] = T2DM + worsening heart failure, N = 608, listed as sotagliflozin
# [7] = sotagliflozin vs. placebo, T2DM + worsening heart failure
# [8] = sotagliflozin vs. placebo, T2DM + worsening heart failure, listed as sotagliflozin
smiles,measurement,setting,value
"CCOc1ccc(Cc2cc([C@@H]3O[C@H](SC)[C@@H](O)[C@H](O)[C@H]3O)ccc2Cl)cc1 [Sotagliflozin, (2S,3R,4R,5S,6R)-2-(4-chloro-3-(4-ethoxybenzyl)phenyl)-6-(methylthio)tetrahydro-2H-pyran-3,4,5-triol]","Primary end point: total no. of deaths from cardiovascular causes, hospitalizations for HF, and urgent visits for HF - event rate","[1]; 200 mg once daily increased to 400 mg, N = 5292, median follow-up 16 months",5.6 no. of events/100 patient-yr
same,Deaths from any cause - event rate,[1]; N = 5292,3.5 no. of events/100 patient-yr
same,Deaths from any cause - no. of events,[1]; N = 5292,246
same,Deaths from cardiovascular causes - event rate,[1]; N = 5292,2.2 no. of events/100 patient-yr
same,Deaths from cardiovascular causes - no. of events,[1]; N = 5292,155
same,"First occurrence of a sustained decrease of ≥50% in the eGFR from baseline for ≥30 days, long-term dialysis, renal transplantation, or sustained eGFR of <15 ml/min/1.73 m2 for ≥30 days - event rate",[1]; N = 5292,0.5 no. of events/100 patient-yr
same,"First occurrence of a sustained decrease of ≥50% in the eGFR from baseline for ≥30 days, long-term dialysis, renal transplantation, or sustained eGFR of <15 ml/min/1.73 m2 for ≥30 days - no. of events",[1]; N = 5292,37
same,"Primary end point: total no. of deaths from cardiovascular causes, hospitalizations for HF, and urgent visits for HF - no. of events",[1]; N = 5292,400
same,"Total no. of deaths from cardiovascular causes, hospitalizations for HF, nonfatal myocardial infarctions, and nonfatal strokes - event rate",[1]; N = 5292,7.6 no. of events/100 patient-yr
same,"Total no. of deaths from cardiovascular causes, hospitalizations for HF, nonfatal myocardial infarctions, and nonfatal strokes - no. of events",[1]; N = 5292,541
same,"Total no. of deaths from cardiovascular causes, hospitalizations for HF, urgent visits for HF, and events of HF during hospitalization - event rate",[1]; N = 5292,6.4 no. of events/100 patient-yr
same,"Total no. of deaths from cardiovascular causes, hospitalizations for HF, urgent visits for HF, and events of HF during hospitalization - no. of events",[1]; N = 5292,453
same,"Total no. of deaths from cardiovascular causes, nonfatal myocardial infarctions, and nonfatal strokes - event rate",[1]; N = 5292,4.8 no. of events/100 patient-yr
same,"Total no. of deaths from cardiovascular causes, nonfatal myocardial infarctions, and nonfatal strokes - no. of events",[1]; N = 5292,343
same,Total no. of hospitalizations for HF and urgent visits for HF - event rate,[1]; N = 5292,3.5 no. of events/100 patient-yr
same,Total no. of hospitalizations for HF and urgent visits for HF - no. of events,[1]; N = 5292,245
same,Deaths from any cause - Hazard Ratio (95% CI),[1]; sotagliflozin vs placebo,0.99 (0.83-1.18)
same,Deaths from cardiovascular causes - Hazard Ratio (95% CI),[1]; sotagliflozin vs placebo,0.90 (0.73-1.12)
same,"Primary end point: total no. of deaths from cardiovascular causes, hospitalizations for HF, and urgent visits for HF - Hazard Ratio (95% CI)",[1]; sotagliflozin vs placebo,0.74 (0.63-0.88)
same,"Total no. of deaths from cardiovascular causes, hospitalizations for HF, nonfatal myocardial infarctions, and nonfatal strokes - Hazard Ratio (95% CI)",[1]; sotagliflozin vs placebo,0.72 (0.63-0.83)
same,"Total no. of deaths from cardiovascular causes, hospitalizations for HF, urgent visits for HF, and events of HF during hospitalization - Hazard Ratio (95% CI)",[1]; sotagliflozin vs placebo,0.76 (0.64-0.89)
same,"Total no. of deaths from cardiovascular causes, nonfatal myocardial infarctions, and nonfatal strokes - Hazard Ratio (95% CI)",[1]; sotagliflozin vs placebo,0.77 (0.65-0.91)
same,Total no. of hospitalizations for HF and urgent visits for HF - Hazard Ratio (95% CI),[1]; sotagliflozin vs placebo,0.67 (0.55-0.82)
same,Deaths from cardiovascular causes - Hazard Ratio (95% CI),[1]; [3],0.90
same,"Primary end point: total no. of deaths from cardiovascular causes, hospitalizations for HF, and urgent visits for HF - Hazard Ratio (95% CI)",[1]; [3],0.74
same,Total no. of hospitalizations for HF and urgent visits for HF - Hazard Ratio (95% CI),[1]; [3],0.67
same,Original coprimary end point: first occurrence of death from cardiovascular causes or hospitalization for heart failure - hazard ratio,[1]; [4],0.77
same,"Original coprimary end point: first occurrence of death from cardiovascular causes, nonfatal myocardial infarction, or nonfatal stroke - hazard ratio",[1]; [4],0.84
same,Deaths from any cause - rate,[2]; [5],(13.5) events per 100 person-years of follow-up
same,Deaths from any cause - total no. of events,[2]; [5],65
same,Deaths from cardiovascular causes - rate,[2]; [5],(10.6) events per 100 person-years of follow-up
same,Deaths from cardiovascular causes - total no. of events,[2]; [5],51
same,"Deaths from cardiovascular causes, hospitalizations and urgent visits for heart failure, and events of heart failure during hospitalization - rate",[2]; [5],(54.7) events per 100 person-years of follow-up
same,"Deaths from cardiovascular causes, hospitalizations and urgent visits for heart failure, and events of heart failure during hospitalization - total no. of events",[2]; [5],263
same,"Deaths from cardiovascular causes, hospitalizations for heart failure, nonfatal myocardial infarctions, and nonfatal strokes - rate",[2]; [5],(51.4) events per 100 person-years of follow-up
same,"Deaths from cardiovascular causes, hospitalizations for heart failure, nonfatal myocardial infarctions, and nonfatal strokes - total no. of events",[2]; [5],247
same,Hospitalizations and urgent visits for heart failure - rate,[2]; [5],(40.4) events per 100 person-years of follow-up
same,Hospitalizations and urgent visits for heart failure - total no. of events,[2]; [5],194
same,Least-squares mean change in estimated GFR,"[2]; T2DM + worsening heart failure, N = 608, during follow-up",−0.34 ml/min/1.73 m^2
same,Deaths from any cause - rate,[2]; [6],13.5 events per 100 person-years of
same,Deaths from cardiovascular causes - rate,[2]; [6],10.6 events per 100 person-years of
same,Least-squares mean change in KCCQ-12 score to month 4,"[2]; T2DM + worsening heart failure, N = 608, scores range from 0 to 100",17.7
same,Primary end point: deaths from cardiovascular causes and hospitalizations and urgent visits for heart failure - total no. of events,"[2]; T2DM patients with recent worsening heart failure, 200 mg once daily increased to 400 mg, N = 608, median follow-up 9.0 months",245
same,Primary end point: deaths from cardiovascular causes and hospitalizations and urgent visits for heart failure - rate,"[2]; T2DM patients with recent worsening heart failure, N = 608",(51.0) events per 100 person-years of follow-up
same,Primary end point: deaths from cardiovascular causes and hospitalizations and urgent visits for heart failure - rate,"[2]; T2DM patients with recent worsening heart failure, N = 608, listed as sotagliflozin",51.0 events per 100 person-years of
same,Absolute difference in rate of primary end-point events,"[2]; sotagliflozin group vs placebo group (51.0 vs 76.3), 95% CI, 5.1 to 45.6",25.3 events per 100 patient-years
same,Difference (95% CI) in least-squares mean change in KCCQ-12 score to month 4,[2],4.1 (1.3 to 7.0) points
same,Difference (95% CI) in least-squares mean change in estimated GFR,[2],−0.16 (−1.30 to 0.98) ml/min/1.73 m^2
same,Difference (95% CI) in least-squares mean change in KCCQ-12 score to month 4,[2]; listed as sotagliflozin,4.1 points
same,Difference (95% CI) in least-squares mean change in estimated GFR,[2]; listed as sotagliflozin,−0.16 ml/min/1.73 m^2
same,"Total number of deaths from cardiovascular causes and hospitalizations for heart failure, excluding urgent visits for heart failure - hazard ratio","[2]; sotagliflozin vs. placebo, 95% CI, 0.53 to 0.88",0.68
same,Deaths from any cause - Hazard Ratio (95% CI),[2]; [7],0.82 (0.59 to 1.14)
same,Deaths from cardiovascular causes - Hazard Ratio (95% CI),[2]; [7],0.84 (0.58 to 1.22)
same,"Deaths from cardiovascular causes, hospitalizations and urgent visits for heart failure, and events of heart failure during hospitalization - Hazard Ratio (95% CI)",[2]; [7],0.68 (0.54 to 0.86)
same,"Deaths from cardiovascular causes, hospitalizations for heart failure, nonfatal myocardial infarctions, and nonfatal strokes - Hazard Ratio (95% CI)",[2]; [7],0.72 (0.56 to 0.92)
same,Hospitalizations and urgent visits for heart failure - Hazard Ratio (95% CI),[2]; [7],0.64 (0.49 to 0.83)
same,Primary end point: deaths from cardiovascular causes and hospitalizations and urgent visits for heart failure - Hazard Ratio (95% CI),[2]; [7],0.67 (0.52 to 0.85)
same,Deaths from any cause - Hazard Ratio (95% CI),[2]; [8],0.82
same,Deaths from cardiovascular causes - Hazard Ratio (95% CI),[2]; [8],0.84
same,Primary end point: deaths from cardiovascular causes and hospitalizations and urgent visits for heart failure - Hazard Ratio (95% CI),[2]; [8],0.67
same,Original primary end point: first occurrence of either death from cardiovascular causes or hospitalization for heart failure - hazard ratio,"[2]; sotagliflozin vs. placebo, time-to-event analysis, 95% CI, 0.56 to 0.89",0.71
same,Subgroup analyses of the primary efficacy end point,"[2]; subgroups by geographic region, LVEF (<50% or ≥50%), timing of first dose, sex, age, renal function (FIG. 4)",consistent treatment effect
